Assay results: ChEMBL document CHEMBL5543084, “Development of cannabidiol derivatives as potent broad-spectrum antibacterial agents with membrane-disruptive mechanism” (Eur J Med Chem, 2024)
≈ marks a conversion by molar mass, not a printed value. Calls of active or inactive are those of the source. The rule behind the calls is not given here.

How the values were obtained:
Acinetobacter baumannii = experiment: Antibacterial activity against Acinetobacter baumannii ATCC 17978 assessed as inhibition of bacterial growth incubated for 24 hrs by broth dilution method; type: functional
Klebsiella pneumoniae [1] = experiment: Antibacterial activity against Klebsiella pneumoniae ATCC 10031 assessed as inhibition of bacterial growth incubated for 24 hrs by broth dilution method; type: functional
Staphylococcus aureus [2] = experiment: Antibacterial activity against methicillin-resistant Staphylococcus aureus NCTC 10442 assessed as inhibition of bacterial growth incubated for 24 hrs in presence of 2.5 mM Ca2+ by broth dilution method; type: functional
Escherichia coli [3] = experiment: Antibacterial activity against Escherichia coli ATCC 25922 assessed as inhibition of bacterial growth incubated for 24 hrs in presence of 1 mM Mg2+ by broth dilution method; type: functional
Staphylococcus aureus [4] = experiment: Antibacterial activity against methicillin-resistant Staphylococcus aureus NCTC 10442 assessed as inhibition of bacterial growth incubated for 24 hrs in presence of 4.5 mM K+ by broth dilution method; type: functional
Klebsiella pneumoniae [5] = experiment: Antibacterial activity against Klebsiella pneumoniae ATCC 10031 assessed as inhibition of bacterial growth incubated for 24 hrs in presence of 19 uM Zn2+ by broth dilution method; type: functional
Staphylococcus aureus [6] = experiment: Antibacterial activity against methicillin-resistant Staphylococcus aureus NCTC 10442 assessed as inhibition of bacterial growth incubated for 24 hrs in presence of 20 uM Fe2+ by broth dilution method; type: functional
Escherichia coli [7] = experiment: Antibacterial activity against Escherichia coli ATCC 25922 assessed as inhibition of bacterial growth incubated for 24 hrs in presence of 20 uM Fe2+ by broth dilution method; type: functional
Staphylococcus aureus [8] = experiment: Antibacterial activity against Staphylococcus aureus ATCC 29213 assessed as inhibition of bacterial growth incubated for 24 hrs in presence of 20 uM Fe3+ by broth dilution method; type: functional
[9] = Cytotoxicity against mouse fibroblast NCTC clone 929 cells assessed as viable cells at […] microg/ml incubated for 24 hrs by CCK-8 assay; type: toxicity, cell-based; conditions: NCTC clone 929 (L929) fibroblast cells, dose 1.56 µg/ml, read-out: Activity
[10] = Cytotoxicity against mouse fibroblast NCTC clone 929 cells assessed as viable cells at 25 microg/ml incubated for 24 hrs by CCK-8 assay; type: toxicity, cell-based; conditions: NCTC clone 929 (L929) fibroblast cells, at 25 µg/mL, read-out: Activity
Staphylococcus aureus [11] = experiment: Bactericidal activity against methicillin-resistant Staphylococcus aureus NCTC 10442 assessed as bacterial killing at 4 time of MIC concentration incubated for 2 hrs by time-kill assay; type: functional
Staphylococcus aureus [12] = experiment: Bactericidal activity against methicillin-resistant Staphylococcus aureus NCTC 10442 assessed as bacterial killing at 8 time of MIC concentration incubated for 0.5 hrs by time-kill assay; type: functional
Staphylococcus aureus [13] = experiment: Bactericidal activity against methicillin-resistant Staphylococcus aureus NCTC 10442 assessed as bacterial killing at 8 time of MIC concentration incubated for 1 hr by time-kill assay relative to control; type: functional
Cell membrane [14] = experiment: Induction of cytoplasmic membrane permeabilization in methicilin-resistant Staphylococcus aureus […] assessed as disruption of cell membrane integrity by measuring increase in fluorescence intensity at 1 to 8 times of MIC concentration measured upto 60 mins by SYTOX green dye based fluorescence analysis; type: cell membranes; conditions: NCTC 10442
Cell membrane [15] = experiment: Induction of cytoplasmic membrane permeabilization in Pseudomonas aeruginosa ATCC 9027 assessed as disruption of cell membrane integrity measured upto 60 mins by measuring increase in fluorescence intensity at 1 to 8 times of MIC concentration by SYTOX green dye based fluorescence analysis; type: cell membranes
Lipoteichoic acid = experiment: Displacement of BODIPY-TR-cadaverine from Bacillus subtilis lipoteichoic acid (LTA) assessed as increase in fluorescence intensity by fluorescence spectrophotometric analysis
Lipopolysaccharide (LPS) = experiment: Displacement of BODIPY-TR-cadaverine from Escherichia coli lipopolysaccharide (LPS) assessed as increase in fluorescence intensity at 4 times MIC measured after 30 mins by fluorescence spectrophotometric analysis; type: subcellular
Staphylococcus aureus [16] = experiment: Bactericidal activity against methicillin-resistant Staphylococcus aureus NCTC 10442 assessed as down-regulation of biological processes related gene expression by measuring UMP biosynthetic process (GO:0044,205) at 4 times of MIC concentration measured after 90 mins incubation by RNA sequencing (RNA-seq) study; type: functional, organism-based
Escherichia coli [17] = experiment: Bactericidal activity against Escherichia coli ATCC 25922 assessed as down-regulation of intracellular sequestering of iron ion (GO:0006880) at 4 times of MIC concentration measured after 90 mins incubation by RNA sequencing (RNA-seq) study; type: functional, organism-based
Staphylococcus aureus [18] = experiment: Bactericidal activity against methicillin-resistant Staphylococcus aureus NCTC 10442 assessed as up regulation of phosphonate and phosphinate metabolism gene expression at 4 times of MIC concentration measured after 90 mins incubation by RNA sequencing (RNA-seq) study; type: functional, organism-based
Staphylococcus aureus [19] = experiment: Bactericidal activity against methicillin-resistant Staphylococcus aureus NCTC 10442 assessed as up regulation of alanine/aspartate and glutamate metabolism gene expression at 4 times of MIC concentration measured after 90 mins incubation by RNA sequencing (RNA-seq) study; type: functional, organism-based
Escherichia coli [20] = experiment: Bactericidal activity against Escherichia coli ATCC 25922 assessed as down regulation of phenylalanine metabolism gene expression at 4 times of MIC concentration measured after 90 mins incubation by RNA sequencing (RNA-seq) study; type: functional, organism-based
Staphylococcus aureus [21] = experiment: Bactericidal activity against methicillin-resistant Staphylococcus aureus NCTC 10442 assessed as change in cell death associated gene expression by measuring up-regulation of clfB, DX983_RS14825) and DX983_RS14235 gene expression at 4 times of MIC concentration measured after 90 mins incubation by RNA sequencing (RNA-seq) study; type: functional, organism-based
Staphylococcus aureus [22] = experiment: Bactericidal activity against methicillin-resistant Staphylococcus aureus NCTC 10442 assessed as change in cell death associated gene expression by measuring down-regulation of biofilm formation plfA (DX983_RS01360) and plfB (DX983_RS01355) gene expression at 4 times of MIC concentration measured after 90 mins incubation by RNA sequencing (RNA-seq) study; type: functional, organism-based
Staphylococcus aureus [23] = experiment: Bactericidal activity against methicillin-resistant Staphylococcus aureus NCTC 10442 assessed as change in cell death associated gene expression by measuring down-regulation of quorum sensing gene DX983_RS05700 gene expression at 4 times of MIC concentration measured after 90 mins incubation by RNA sequencing (RNA-seq) study; type: functional, organism-based
Escherichia coli [24] = experiment: Bactericidal activity against Escherichia coli ATCC 25922 assessed as change in cell death associated gene expression by measuring down-regulation of the inner membrane protein-coding gene (yqiJ, D1792_RS11855) gene expression at 4 times of MIC concentration measured after 90 mins incubation by RNA sequencing (RNA-seq) study; type: functional, organism-based
Escherichia coli [25] = experiment: Bactericidal activity against Escherichia coli ATCC 25922 assessed as change in cell death associated gene expression by measuring down-regulation of UDP-glucose 4-epimerase (galE, D1792_RS06370) gene expression at 4 times of MIC concentration measured after 90 mins incubation by RNA sequencing (RNA-seq) study; type: functional, organism-based
Staphylococcus aureus [26] = experiment: In vivo antibacterial activity against Staphylococcus aureus ATCC 29213 infected C57BL6 mouse corneal infection model assessed as reduction in bacterial burden at 3 mg/ml, TOP 4 times in a day for 3 consecutive days; type: functional; conditions: time 3 day

C=C(C)[C@@H]1CCC(C)=C[C@H]1c1c(OCCCNC(=N)N)cc(CCCCC)cc1OCCCNC(=N)N
MIC (Acinetobacter baumannii): 3.12 µg/mL (≈ 6.09 µM)
MIC (Klebsiella pneumoniae [1]): 1.56 µg/mL (≈ 3.04 µM)
MIC (Staphylococcus aureus [2]): 0.39 µg/mL
MIC (Escherichia coli [3]): 1.56 µg/mL
MIC (Staphylococcus aureus [4]): 0.39 µg/mL
MIC (Klebsiella pneumoniae [5]): 3.12 µg/mL
MIC (Staphylococcus aureus [6]): 0.39 µg/mL
MIC (Escherichia coli [7]): 1.56 µg/mL
MIC (Staphylococcus aureus [8]): 0.39 µg/mL
viability at 24 h, 1.56 microg/ml [9]: 94%
viability at 24 h, 25 microg/ml [10]: 68.7%
inhibition (INH) (Staphylococcus aureus [11]): 99.9%
inhibition (INH) (Staphylococcus aureus [12]): 99.9%
inhibition (INH) (Staphylococcus aureus [13]): 100%
Activity (Cell membrane [14]): Active
Activity (Cell membrane [15]): Active
Activity (Lipoteichoic acid): Dose-Dependent Effect
Activity (Lipopolysaccharide (LPS)): 76.5%
Activity (Staphylococcus aureus [16]): Active
Activity (Escherichia coli [17]): Active
Activity (Staphylococcus aureus [18]): Active
Activity (Staphylococcus aureus [19]): Active
Activity (Escherichia coli [20]): Active
Activity (Staphylococcus aureus [21]): Active
Activity (Staphylococcus aureus [22]): Active
Activity (Staphylococcus aureus [23]): Active
Activity (Escherichia coli [24]): Active
Activity (Escherichia coli [25]): Active
Activity (Staphylococcus aureus [26]): 6.99 log10FFU/ml
